Data: patent US20250034116A1, “1,4-DIHETEROCYCLIC SUBSTITUTED AROMATIC RING OR AROMATIC HETEROCYCLIC COMPOUND AND USE THEREOF” (BeBetter Med Inc., priority 2022, published 2025)

Experiments:
[1] = Pharmacokinetic (PK) experiment, oral administration in rats; format: in vivo, Male SD rats; settings: 20 mg/kg; for AUC(0-inf) / Cmax / Tmax / half-life / AUC(0-t): male, SD, rat, plasma; for AUC(0-t): read-out: AUC0-24
Experimental: Male SD rats, weighing 180-250 grams, were fasted overnight before testing. The test compound was dissolved in 30% sulfobutylether-β-cyclodextrin and administered orally at a dose of 20 mg/kg. Blood was collected from the tail vein at 15 minutes, 30 minutes, and 1, 2, 4, 6, 8, and 24 hours after administration. Approximately 0.3 ml of blood was collected at each time point, placed in a centrifuge tube containing K2-EDTA, and centrifuged (2000 g for 10 minutes at 4° C.) to take the plasma, which was then stored in an ultra-low temperature freezer at −70° C. or below. A 50 μL plasma sample was mixed with 135 μL of acetonitrile (containing 0.5 μg/mL internal standard) and vortexed for protein precipitation. After centrifugation, the supernatant was taken for LC-MS/MS analysis.

[2] = test system: CYP enzymes in rat liver microsomes (RLM); test: Inhibition of 20-HETE production in rat liver microsomes (RLM); format: biochemical
How it was run: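 Test compounds were dissolved in DMSO, diluted in acetonitrile/DMSO (3:1), and 2 μl was mixed with 100 μl potassium phosphate buffer containing rat liver microsomes in a 96-well plate. Duplicate 30 μl aliquots received 15 μl of 400 μM substrate, were preheated at 37° C. for 10 minutes, then started with 15 μl of 6 mM NADPH for 25 minutes. LC-MS/MS measured 20-HETE formation.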

[3] = test system: CYP enzymes in mouse liver microsomes (MLM); test: Inhibition of 20-HETE production in mouse liver microsomes (MLM); format: biochemical
Experimental: (§1) Experimental principle: The inhibitory activity of 20-HETE production is evaluated by testing the inhibitory effects of the compound on human liver microsomes (HLM), rat liver microsomes (RLM), mouse liver microsomes (MLM), or […] CYP4 subtype enzymes (CYP4F2). This assay employs HLM, RLM, or MLM along with recombinant CYP4F2 (rCYP4F2) and recombinant CYP4A11 (rCYP4A11), which are […] CYP4 subtype enzymes, to detect the effects of the test compound at different concentrations on the metabolic rate of enzyme-specific substrates, to determine the inhibitory effects of the test compound on CYP enzymes in HLM, RLM, or MLM.
(§2) Experimental methods: Dissolve the test compound in DMSO, and subsequently dilute it with an acetonitrile and DMSO mixture (3:1). Add 2 μl of varying concentrations of the test compound and 100 μl of potassium phosphate buffer containing either liver microsomes or recombinant enzymes to a 96-well plate. After mixing well, transfer 30 μl to another well (in duplicate), add 15 μl of 400 μM substrate solution, and mix well again. Preheat at 37° C. for 10 minutes, and then add 15 μl of 6 mM NADPH and incubate at 37° C. for 25 minutes. After 25 minutes, add 160 μl of acetonitrile solution (containing 0.1 μg/ml internal standard) to stop the reaction. Mix well, centrifuge at 3500 g for 15 minutes, and then analyze the supernatant using LC-MS/MS.
(§3) Plot the compound concentration on the x-axis and the inhibition rate on the y-axis to draw the curve. Use GraphPad Prism 5 software to fit the curve and calculate the IC50. The formula is Y=Bottom+(Top−Bottom)/(1+10^((Log IC50−X)×HillSlope)). X represents the logarithmic concentration of the inhibitor, and Y represents the relative enzyme activity at a given inhibitor concentration (relative to the condition without the inhibitor).
(§4) Calculate the inhibition percentages at concentrations of 1000 nM, 500 nM, or 100 nM as well as the half-maximal inhibitory concentration (IC50) of the test compound from the above experiment.

[4] = test system: CYP enzymes in human liver microsomes (HLM); test: Inhibition of 20-HETE production in human liver microsomes (HLM); format: biochemical
How it was run: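 LC-MS/MS read-out of 20-HETE formation, expressed as activity relative to no-inhibitor control and fitted to a Hill equation for IC50; percent inhibition also given at 1000, 500 or 100 nM. Enzyme sources: recombinant CYP4F2, recombinant CYP4A11, or human or mouse liver microsomes. Each is combined with compound and substrate (400 μM solution) and warmed 10 min at 37 °C, then incubated 25 min at 37 °C after adding NADPH (6 mM solution).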

[5] = target: recombinant CYP4A11 (rCYP4A11) (Homo sapiens (Human), UniProt Q02928); test: Inhibition of 20-HETE production by recombinant CYP4A11; format: biochemical; settings: read-out: rCYP4A11 (% inh @ 100 nM)
Sequence of recombinant CYP4A11 (rCYP4A11) (Q02928 5-519): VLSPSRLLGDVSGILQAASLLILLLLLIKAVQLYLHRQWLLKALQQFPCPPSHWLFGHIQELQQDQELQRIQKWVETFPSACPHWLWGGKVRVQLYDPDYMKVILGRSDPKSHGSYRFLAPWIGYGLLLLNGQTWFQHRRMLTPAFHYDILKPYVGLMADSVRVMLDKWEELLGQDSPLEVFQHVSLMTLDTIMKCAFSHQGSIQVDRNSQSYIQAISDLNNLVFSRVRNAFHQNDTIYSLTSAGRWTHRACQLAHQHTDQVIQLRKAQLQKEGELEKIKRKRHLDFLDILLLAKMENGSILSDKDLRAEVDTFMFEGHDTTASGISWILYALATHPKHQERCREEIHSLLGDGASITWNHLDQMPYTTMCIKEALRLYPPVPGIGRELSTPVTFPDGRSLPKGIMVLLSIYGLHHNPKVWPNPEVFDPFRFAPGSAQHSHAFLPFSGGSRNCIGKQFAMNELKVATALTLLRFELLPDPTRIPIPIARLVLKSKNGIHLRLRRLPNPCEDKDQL
Experimental: as §1, §2, §3, §4

[6] = target: recombinant CYP4F2 (rCYP4F2) (Homo sapiens (Human), UniProt P78329); test: Inhibition of 20-HETE production by recombinant CYP4F2; format: biochemical; settings: read-out: rCYP4F2 (% inh @ 100 nM)
Sequence of recombinant CYP4F2 (rCYP4F2) (P78329 5-520): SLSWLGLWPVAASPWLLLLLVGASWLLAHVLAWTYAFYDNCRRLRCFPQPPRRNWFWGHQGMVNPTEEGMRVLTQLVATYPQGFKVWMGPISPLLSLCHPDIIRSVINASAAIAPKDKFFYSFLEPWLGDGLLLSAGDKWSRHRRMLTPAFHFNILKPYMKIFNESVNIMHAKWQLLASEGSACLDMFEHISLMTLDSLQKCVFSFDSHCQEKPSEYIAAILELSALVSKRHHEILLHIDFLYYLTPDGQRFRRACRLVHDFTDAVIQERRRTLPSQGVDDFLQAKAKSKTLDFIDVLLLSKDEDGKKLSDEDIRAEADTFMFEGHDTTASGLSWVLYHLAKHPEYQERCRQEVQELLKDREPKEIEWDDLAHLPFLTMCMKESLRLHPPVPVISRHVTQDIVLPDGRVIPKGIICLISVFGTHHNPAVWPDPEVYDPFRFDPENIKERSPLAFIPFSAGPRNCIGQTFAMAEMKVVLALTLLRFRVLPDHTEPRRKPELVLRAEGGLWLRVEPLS
Experimental: as §1, §2, §3, §4

AUC(0-inf) [1] | Cmax [1] | Tmax [1] | half-life [1] | AUC(0-t) [1] | IC50 [2] | RLM (% inh @ 500 nM) [2] | IC50 [3] | IC50 [4] | HLM (% inh @ 500 nM) [4] | inhibition at 0.1 µM [5] | inhibition at 0.1 µM [6] | SMILES | absorption and blood exposure after oral administration (in words) [1]
44700 ng·h/mL | 6680 ng/mL | 1.67 h | 4.03 h | 44100 ng·h/mL | 222 nM | 64.17% | 1010 nM | 9.53 nM | 90.91% | – | – | O=S1(=O)CCCCN1CC1CCN(c2ccc(-c3cn[nH]c3)cc2F)CC1 [Compound 163, 2-((1-(2-fluoro-4-(1H-pyrazol-4-yl)phenyl)piperidin-4-yl)methyl)-1,2-thiazinane 1,1-dioxide] | well absorbed and exhibit high blood exposure
– | – | – | – | – | 86.4 nM | – | – | 20 nM | 81.86% | 40.6% | 73.8% | O=C(Nc1ccc2ccccc2c1)C1CCN(c2ccc(-c3cn[nH]c3)cc2)CC1 [Compound 64, 1-(4-(1H-pyrazol-4-yl)phenyl)-N-(naphthalen-2-yl)piperidine-4-carboxamide] | –
– | – | – | – | – | – | 74.61% | 1850 nM | 32.8 nM | 88.29% | – | – | O=C(C1CCCC1)N1CCC2(CCN(c3ccc(-c4cn[nH]c4)cc3F)C2)C1 (stereo not shown) [Compound 124, cyclopentyl(7-(2-fluoro-4-(1H-pyrazol-4-yl)phenyl)-2,7-diazaspiro[4.4]nonan-2-yl) methanone] | –
– | – | – | – | – | – | 49.97% | – | – | 81.76% | 8.98% | 61.7% | O=C(NC1CCCCC1)C1CCN(c2ccc(-c3cn[nH]c3)cc2)CC1 [Compound 57, 1-(4-(1H-pyrazol-4-yl)phenyl)-N-cyclohexylpiperidine-4-carboxamide] | –
– | – | – | – | – | – | 83.75% | – | – | 71.06% | 1.59% | 49.7% | O=C1CCCN1CC1CCN(c2ccc(-c3ccno3)cc2)CC1 [Compound 34, 1-((1-(4-(isoxazol-5-yl)phenyl)piperidin-4-yl)methyl)pyrrolidin-2-one] | –
– | – | – | – | – | 157 nM | – | – | – | 80.98% | 46.3% | 59.7% | O=C1CCCN1CC1CCN(c2ccc(-c3cn[nH]c3)cc2Cl)CC1 [Compound 11, 1-((1-(2-chloro-4-(1H-pyrazol-4-yl)phenyl)piperidin-4-yl)methyl)pyrrolidin-2-one] | –
– | – | – | – | – | 9.78 nM | – | 1520 nM | 11.1 nM | 79.54% | – | – | C[C@H]1CN(c2ccc(-c3cn[nH]c3)c(F)c2F)CCN1C(=O)N1CCCC1 [Compound 105, (S)-(4-(2,3-difluoro-4-(1H-pyrazol-4-yl)phenyl)-2-methylpiperazin-1-yl)(pyrrolidin-1-yl) methanone] | –
– | – | – | – | – | – | 80.86% | 296 nM | – | 91.77% | – | – | O=C(CC1CCCC1)N1CCC(c2ccc(-c3cn[nH]c3)c(F)c2F)CC1 [Compound 93, 2-cyclopentyl-1-(4-(2,3-difluoro-4-(1H-pyrazol-4-yl)phenyl)piperidin-1-yl)ethan-1-one] | –
– | – | – | – | – | 33.4 nM | 69.55% | 720 nM | 23.6 nM | – | – | – | O=C1CCC(C(=O)N2CCC(c3ccc(-c4cn[nH]c4)c(F)c3F)CC2)CC1 [Compound 107, 4-(4-(2,3-difluoro-4-(1H-pyrazol-4-yl)phenyl)piperidine-1-carbonyl)cyclohexane-1-one] | –
– | – | – | – | – | 22.8 nM | – | 414 nM | 7.62 nM | – | – | – | CC1CN(c2ccc(-c3cn[nH]c3)cc2F)CC(C)N1C(=O)N1CCCC1 (stereo not shown) [Compound 130, (4-(2-fluoro-4-(1H-pyrazol-4-yl)phenyl)-2,6-dimethylpiperazin-1-yl)(pyrrolidin-1-yl) methanone] | –
– | – | – | – | – | 434 nM | 59.42% | – | – | 87.01% | 58.7% | 61.4% | O=C1CCCN1CC1CCN(c2ccc(-c3cn[nH]c3)cc2C(F)F)CC1 [Compound 19, 1-((1-(2-(difluoromethyl)-4-(1H-pyrazol-4-yl)phenyl)piperidin-4-yl)methyl)pyrrolidin-2-one] | –
– | – | – | – | – | – | 74.73% | 743 nM | 12 nM | 80.55% | – | – | C[C@@H]1CN(c2ccc(-c3cn[nH]c3)c(F)c2F)CCN1C(=O)N1CCCC1 [Compound 103, (R)-(4-(2,3-difluoro-4-(1H-pyrazol-4-yl)phenyl)-2-methylpiperazin-1-yl)(pyrrolidin-1-yl) methanone] | –
107000 ng·h/mL | 11400 ng/mL | 2.5 h | 2.22 h | 107000 ng·h/mL | 9.09 nM | – | 735 nM | 19.1 nM | 96.45% | – | – | O=C(N1CC=C(c2ccc(-c3cn[nH]c3)c(F)c2F)CC1)N1CCCC1 [Compound 91, (4-(2,3-difluoro-4-(1H-pyrazol-4-yl)phenyl)-3,6-dihydropyridin-1(2H)-yl)(pyrrolidin-1-yl) methanone] | well absorbed and exhibit high blood exposure
– | – | – | – | – | – | 47.19% | – | – | 72.44% | 17.5% | 52.8% | O=C1CCCN1CC1CCN(c2ccc(-c3cn[nH]c3)cc2)C1 (stereo not shown) [Compound 74, 1-((1-(4-(1H-pyrazol-4-yl)phenyl)pyrrolidin-3-yl)methyl)pyrrolidin-2-one] | –
– | – | – | – | – | – | 35.64% | – | 42.7 nM | – | 41.1% | 66% | O=C(NCC1CCN(c2ccc(-c3cn[nH]c3)cc2)CC1)c1ccccc1 [Compound 47, N-((1-(4-(1H-pyrazol-4-yl)phenyl)piperidin-4-yl)methyl)benzamide] | –
– | – | – | – | – | 17.9 nM | 74.10% | 1900 nM | 18.3 nM | – | – | – | O=C(N1CCCC1)N1CC2CN(c3ccc(-c4cn[nH]c4)c(F)c3F)CC2C1 (stereo not shown) [Compound 127, (5-(2,3-difluoro-4-(1H-pyrazol-4-yl)phenyl)hexahydropyrrolo[3,4-c]pyrrol-2 (1H)-yl)(pyrrolidin-1-yl) methanone] | –
– | – | – | – | – | 29.5 nM | 77.32% | 174 nM | 16.1 nM | 92.92% | – | – | O=C(N1CCC(c2ccc(-c3cn[nH]c3)c(F)c2F)CC1)C1(O)CCCCC1 [Compound 110, (4-(2,3-difluoro-4-(1H-pyrazol-4-yl)phenyl)piperidin-1-yl)(1-hydroxycyclohexyl) methanone] | –
– | – | – | – | – | 521 nM | 44.31% | – | – | 79.80% | 23.3% | 42.4% | O=C(C1CCN(c2ccc(-c3cn[nH]c3)cc2)CC1)N1CCCC1 [Compound 49, (1-(4-(1H-pyrazol-4-yl)phenyl)piperidin-4-yl)(pyrrolidin-1-yl) methanone] | –
– | – | – | – | – | 322 nM | – | – | – | 75.59% | 27.8% | 64.2% | O=C1CCCN1CC1CCN(c2ccc(-c3cn[nH]c3)c(F)c2)CC1 [Compound 3, 1-((1-(3-fluoro-4-(1H-pyrazol-4-yl)phenyl)piperidin-4-yl)methyl)pyrrolidin-2-one] | –
